Test results reported in US20250243180A1, “TARGETED PROTEIN DEGRADATION” (Monte Rosa Therapeutics AG, priority 2023, published 2025).

target: CRBN-DDB1 (Homo sapiens (Human), UniProt Q96SW2); experiment: Compound binding to CRBN by HTRF assay; settings: not given
How it was run: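 Ki calculated via Cheng-Prusoff from geometric-mean EC50 values, after normalizing the HTRF ratio to lenalidomide (active) and DMSO (neutral) controls. Compounds (11 points, 1:3 steps) incubated 30 min at ambient temperature with CRBN-DDB1 2.5 nM, anti-His Tb cryptate and Cy5-thalidomide tracer 100 nM.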

Sequence of CRBN-DDB1 (Q96SW2 whole entry): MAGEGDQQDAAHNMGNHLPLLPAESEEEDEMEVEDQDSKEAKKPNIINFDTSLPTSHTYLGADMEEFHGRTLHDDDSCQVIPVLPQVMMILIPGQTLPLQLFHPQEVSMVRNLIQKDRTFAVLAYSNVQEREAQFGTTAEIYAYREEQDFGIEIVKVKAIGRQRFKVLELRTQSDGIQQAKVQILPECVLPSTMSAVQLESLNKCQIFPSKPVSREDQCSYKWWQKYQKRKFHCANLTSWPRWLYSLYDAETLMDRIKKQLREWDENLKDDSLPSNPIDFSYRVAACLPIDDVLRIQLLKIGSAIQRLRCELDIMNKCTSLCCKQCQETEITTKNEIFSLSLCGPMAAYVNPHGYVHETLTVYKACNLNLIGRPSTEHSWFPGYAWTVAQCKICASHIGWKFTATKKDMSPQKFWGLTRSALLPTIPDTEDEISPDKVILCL
Sequence of CRBN-DDB1 (Q16531 whole entry partner): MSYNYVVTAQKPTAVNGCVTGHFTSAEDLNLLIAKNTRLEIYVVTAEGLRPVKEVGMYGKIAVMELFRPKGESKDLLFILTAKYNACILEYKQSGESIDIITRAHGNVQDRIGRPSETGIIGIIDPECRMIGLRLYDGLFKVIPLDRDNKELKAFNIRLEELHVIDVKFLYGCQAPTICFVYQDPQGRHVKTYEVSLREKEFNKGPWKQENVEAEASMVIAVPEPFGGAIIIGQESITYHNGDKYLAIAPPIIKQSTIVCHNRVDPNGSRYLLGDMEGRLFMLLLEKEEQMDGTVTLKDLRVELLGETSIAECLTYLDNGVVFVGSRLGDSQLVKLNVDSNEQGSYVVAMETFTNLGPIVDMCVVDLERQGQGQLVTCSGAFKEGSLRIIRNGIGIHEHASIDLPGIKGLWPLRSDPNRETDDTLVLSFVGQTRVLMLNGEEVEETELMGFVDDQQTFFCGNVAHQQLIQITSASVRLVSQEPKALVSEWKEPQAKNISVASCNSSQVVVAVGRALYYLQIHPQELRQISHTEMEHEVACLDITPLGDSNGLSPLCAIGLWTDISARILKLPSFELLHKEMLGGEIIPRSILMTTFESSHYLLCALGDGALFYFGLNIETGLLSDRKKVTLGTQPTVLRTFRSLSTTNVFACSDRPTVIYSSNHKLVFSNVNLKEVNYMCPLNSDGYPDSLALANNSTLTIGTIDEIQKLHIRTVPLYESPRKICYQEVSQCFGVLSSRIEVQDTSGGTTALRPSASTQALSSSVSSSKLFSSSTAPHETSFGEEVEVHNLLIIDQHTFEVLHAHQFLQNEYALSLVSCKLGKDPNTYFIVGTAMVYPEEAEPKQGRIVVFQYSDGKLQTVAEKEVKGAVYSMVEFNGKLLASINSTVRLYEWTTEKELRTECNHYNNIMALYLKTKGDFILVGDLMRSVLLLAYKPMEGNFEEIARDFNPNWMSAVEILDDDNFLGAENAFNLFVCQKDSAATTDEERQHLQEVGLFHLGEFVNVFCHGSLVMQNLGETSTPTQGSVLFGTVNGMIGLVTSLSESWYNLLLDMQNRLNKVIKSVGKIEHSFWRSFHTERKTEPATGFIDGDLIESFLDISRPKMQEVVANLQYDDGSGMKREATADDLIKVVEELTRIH

SMILES | EC50 [nM]
Cc1coc(C(C)(C)C(=O)NCc2cc(Cl)c(C3CCC(=O)NC3=O)c(Cl)c2)n1 (stereo not drawn) [Compound 197] | 120
CC(C)(C(=O)NCc1cc(Cl)c(C2CCC(=O)NC2=O)c(Cl)c1)c1nocc1C1CC1 (stereo not drawn) [Compound 198] | 130
CC(C)(C(=O)NCc1cc(Cl)c(C2CCC(=O)NC2=O)c(Cl)c1)c1ncoc1C(F)(F)F (stereo not drawn) [Compound 199] | 140
CC(C)(C(=O)NCc1cc(Cl)c(C2CCC(=O)NC2=O)c(Cl)c1)c1nnc(C(F)F)o1 (stereo not drawn) [Compound 200] | 170
Cc1conc1C(C)(C)C(=O)NCc1cc(Cl)c(C2CCC(=O)NC2=O)c(Cl)c1 (stereo not drawn) [Compound 201] | 140
CC(C)(O)c1ccc(C(C)(C)C(=O)NCc2cc(Cl)c(C3CCC(=O)NC3=O)c(Cl)c2)nn1 (stereo not drawn) [Compound 203] | 200
COc1ccc(C(C)(C)C(=O)NCc2cc(Cl)c(C3CCC(=O)NC3=O)c(Cl)c2)nn1 (stereo not drawn) [Compound 204] | 80
Cc1ccc(C(C)(C)C(=O)NCc2cc(Cl)c(C3CCC(=O)NC3=O)c(Cl)c2)cn1 (stereo not drawn) [Compound 205] | 110
CC(C)(C(=O)NCc1cc(Cl)c(C2CCC(=O)NC2=O)c(Cl)c1)c1cnc(CO)cn1 (stereo not drawn) [Compound 206] | 100

same assay, conditions: HTRF class; Cereblon binding

SMILES | EC50 [nM]
Cc1coc(C(C)(C)C(=O)NCc2cc(Cl)c(C3CCC(=O)NC3=O)c(Cl)c2)n1 (stereo not drawn) [Compound 197] | 100 to 1000
CC(C)(C(=O)NCc1cc(Cl)c(C2CCC(=O)NC2=O)c(Cl)c1)c1nocc1C1CC1 (stereo not drawn) [Compound 198] | 100 to 1000
CC(C)(C(=O)NCc1cc(Cl)c(C2CCC(=O)NC2=O)c(Cl)c1)c1ncoc1C(F)(F)F (stereo not drawn) [Compound 199] | 100 to 1000
CC(C)(C(=O)NCc1cc(Cl)c(C2CCC(=O)NC2=O)c(Cl)c1)c1nnc(C(F)F)o1 (stereo not drawn) [Compound 200] | 100 to 1000
Cc1conc1C(C)(C)C(=O)NCc1cc(Cl)c(C2CCC(=O)NC2=O)c(Cl)c1 (stereo not drawn) [Compound 201] | 100 to 1000
CC(C)(O)c1ccc(C(C)(C)C(=O)NCc2cc(Cl)c(C3CCC(=O)NC3=O)c(Cl)c2)nn1 (stereo not drawn) [Compound 203] | 100 to 1000
COc1ccc(C(C)(C)C(=O)NCc2cc(Cl)c(C3CCC(=O)NC3=O)c(Cl)c2)nn1 (stereo not drawn) [Compound 204] | ≤ 100
Cc1ccc(C(C)(C)C(=O)NCc2cc(Cl)c(C3CCC(=O)NC3=O)c(Cl)c2)cn1 (stereo not drawn) [Compound 205] | 100 to 1000
CC(C)(C(=O)NCc1cc(Cl)c(C2CCC(=O)NC2=O)c(Cl)c1)c1cnc(CO)cn1 (stereo not drawn) [Compound 206] | 100 to 1000

target: NEK7 (Homo sapiens (Human), UniProt Q8TDX7+Q96SW2); experiment: NEK7 NanoBiT degradation assay in Cal51 NEK7 NanoBiT cell line; format: cell-based; settings: CAL-51; Cal51 NEK7 NanoBiT cells, 24 hours; read-out: NEK7 NanoBiT Dmax
How it was run: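 EC50 comes from a 4-parameter fit of control-normalized luminescence. The luminescence reports HiBiT-NEK7 (endogenous knock-in) complemented by stably expressed LgBiT in Cal51 cells after 24 h compound exposure at 37 °C. Final concentrations ran 1 μM to 0.05 nM, with Endurazine substrate present in the medium throughout.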

Sequence of NEK7 (Q8TDX7 whole entry): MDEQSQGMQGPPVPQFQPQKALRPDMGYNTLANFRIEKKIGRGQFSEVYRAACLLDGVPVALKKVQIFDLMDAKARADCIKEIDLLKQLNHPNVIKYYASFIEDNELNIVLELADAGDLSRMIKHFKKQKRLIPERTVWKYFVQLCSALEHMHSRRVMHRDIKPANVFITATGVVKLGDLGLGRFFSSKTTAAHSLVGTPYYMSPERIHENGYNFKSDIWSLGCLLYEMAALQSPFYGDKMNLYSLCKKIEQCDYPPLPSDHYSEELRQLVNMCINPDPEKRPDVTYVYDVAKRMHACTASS
Sequence of NEK7 (Q96SW2 whole entry): as the sequence (Q96SW2 whole entry) above
Sequence of NEK7 (Q16531 2-1140 partner): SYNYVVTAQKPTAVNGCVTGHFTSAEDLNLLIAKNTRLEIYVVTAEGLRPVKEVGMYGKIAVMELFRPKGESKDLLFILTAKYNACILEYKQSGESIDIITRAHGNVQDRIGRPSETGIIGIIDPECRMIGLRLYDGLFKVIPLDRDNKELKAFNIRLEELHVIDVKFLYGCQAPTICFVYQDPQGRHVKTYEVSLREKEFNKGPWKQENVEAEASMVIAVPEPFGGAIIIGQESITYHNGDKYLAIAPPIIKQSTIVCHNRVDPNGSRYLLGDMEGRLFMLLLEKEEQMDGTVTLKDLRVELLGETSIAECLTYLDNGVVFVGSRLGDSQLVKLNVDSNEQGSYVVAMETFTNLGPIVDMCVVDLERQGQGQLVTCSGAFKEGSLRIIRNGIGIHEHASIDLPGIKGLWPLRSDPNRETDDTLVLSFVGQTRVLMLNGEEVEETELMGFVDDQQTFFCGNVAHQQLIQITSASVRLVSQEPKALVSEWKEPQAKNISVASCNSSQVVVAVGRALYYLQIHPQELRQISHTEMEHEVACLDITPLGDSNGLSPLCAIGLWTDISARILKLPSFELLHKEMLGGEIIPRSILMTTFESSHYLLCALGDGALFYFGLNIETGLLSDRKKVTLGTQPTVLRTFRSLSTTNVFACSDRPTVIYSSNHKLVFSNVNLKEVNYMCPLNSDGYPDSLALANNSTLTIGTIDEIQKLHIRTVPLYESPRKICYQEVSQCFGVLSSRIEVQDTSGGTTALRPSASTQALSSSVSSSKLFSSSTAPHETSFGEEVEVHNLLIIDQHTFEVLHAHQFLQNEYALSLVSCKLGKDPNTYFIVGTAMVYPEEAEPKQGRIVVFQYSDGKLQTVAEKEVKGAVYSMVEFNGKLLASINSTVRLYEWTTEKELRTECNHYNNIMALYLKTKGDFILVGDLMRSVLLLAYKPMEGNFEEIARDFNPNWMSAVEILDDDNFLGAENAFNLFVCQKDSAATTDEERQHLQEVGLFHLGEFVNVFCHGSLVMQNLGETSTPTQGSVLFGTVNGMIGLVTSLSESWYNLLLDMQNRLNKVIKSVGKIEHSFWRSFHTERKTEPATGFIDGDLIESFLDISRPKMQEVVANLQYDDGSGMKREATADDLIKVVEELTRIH

SMILES | Dmax [%]
Cc1coc(C(C)(C)C(=O)NCc2cc(Cl)c(C3CCC(=O)NC3=O)c(Cl)c2)n1 (stereo not drawn) [Compound 197] | 87
CC(C)(C(=O)NCc1cc(Cl)c(C2CCC(=O)NC2=O)c(Cl)c1)c1nocc1C1CC1 (stereo not drawn) [Compound 198] | 83
CC(C)(C(=O)NCc1cc(Cl)c(C2CCC(=O)NC2=O)c(Cl)c1)c1ncoc1C(F)(F)F (stereo not drawn) [Compound 199] | 67
CC(C)(C(=O)NCc1cc(Cl)c(C2CCC(=O)NC2=O)c(Cl)c1)c1nnc(C(F)F)o1 (stereo not drawn) [Compound 200] | 74
Cc1conc1C(C)(C)C(=O)NCc1cc(Cl)c(C2CCC(=O)NC2=O)c(Cl)c1 (stereo not drawn) [Compound 201] | 93
CC(C)(O)c1ccc(C(C)(C)C(=O)NCc2cc(Cl)c(C3CCC(=O)NC3=O)c(Cl)c2)nn1 (stereo not drawn) [Compound 203] | 94
COc1ccc(C(C)(C)C(=O)NCc2cc(Cl)c(C3CCC(=O)NC3=O)c(Cl)c2)nn1 (stereo not drawn) [Compound 204] | 98
Cc1ccc(C(C)(C)C(=O)NCc2cc(Cl)c(C3CCC(=O)NC3=O)c(Cl)c2)cn1 (stereo not drawn) [Compound 205] | 97
CC(C)(C(=O)NCc1cc(Cl)c(C2CCC(=O)NC2=O)c(Cl)c1)c1cnc(CO)cn1 (stereo not drawn) [Compound 206] | 85

same assay, conditions: CAL-51; NEK7 degradation, Cal51 NEK7 NanoBiT cells, 24 hours; read-out: NanoBiT Dmax

SMILES | Dmax [%]
Cc1coc(C(C)(C)C(=O)NCc2cc(Cl)c(C3CCC(=O)NC3=O)c(Cl)c2)n1 (stereo not drawn) [Compound 197] | > 75
CC(C)(C(=O)NCc1cc(Cl)c(C2CCC(=O)NC2=O)c(Cl)c1)c1nocc1C1CC1 (stereo not drawn) [Compound 198] | > 75
CC(C)(C(=O)NCc1cc(Cl)c(C2CCC(=O)NC2=O)c(Cl)c1)c1ncoc1C(F)(F)F (stereo not drawn) [Compound 199] | 50 to 75
CC(C)(C(=O)NCc1cc(Cl)c(C2CCC(=O)NC2=O)c(Cl)c1)c1nnc(C(F)F)o1 (stereo not drawn) [Compound 200] | 50 to 75
Cc1conc1C(C)(C)C(=O)NCc1cc(Cl)c(C2CCC(=O)NC2=O)c(Cl)c1 (stereo not drawn) [Compound 201] | > 75
CC(C)(O)c1ccc(C(C)(C)C(=O)NCc2cc(Cl)c(C3CCC(=O)NC3=O)c(Cl)c2)nn1 (stereo not drawn) [Compound 203] | > 75
COc1ccc(C(C)(C)C(=O)NCc2cc(Cl)c(C3CCC(=O)NC3=O)c(Cl)c2)nn1 (stereo not drawn) [Compound 204] | > 75
Cc1ccc(C(C)(C)C(=O)NCc2cc(Cl)c(C3CCC(=O)NC3=O)c(Cl)c2)cn1 (stereo not drawn) [Compound 205] | > 75
CC(C)(C(=O)NCc1cc(Cl)c(C2CCC(=O)NC2=O)c(Cl)c1)c1cnc(CO)cn1 (stereo not drawn) [Compound 206] | > 75

same assay, conditions: Cal51 NEK7 NanoBiT cells, 24 hours; read-out: NEK7 NanoBiT DC50

SMILES | DC50 [nM]
Cc1coc(C(C)(C)C(=O)NCc2cc(Cl)c(C3CCC(=O)NC3=O)c(Cl)c2)n1 (stereo not drawn) [Compound 197] | 13
CC(C)(C(=O)NCc1cc(Cl)c(C2CCC(=O)NC2=O)c(Cl)c1)c1nocc1C1CC1 (stereo not drawn) [Compound 198] | 22
CC(C)(C(=O)NCc1cc(Cl)c(C2CCC(=O)NC2=O)c(Cl)c1)c1ncoc1C(F)(F)F (stereo not drawn) [Compound 199] | 99
CC(C)(C(=O)NCc1cc(Cl)c(C2CCC(=O)NC2=O)c(Cl)c1)c1nnc(C(F)F)o1 (stereo not drawn) [Compound 200] | 46
Cc1conc1C(C)(C)C(=O)NCc1cc(Cl)c(C2CCC(=O)NC2=O)c(Cl)c1 (stereo not drawn) [Compound 201] | 7
CC(C)(O)c1ccc(C(C)(C)C(=O)NCc2cc(Cl)c(C3CCC(=O)NC3=O)c(Cl)c2)nn1 (stereo not drawn) [Compound 203] | 4
COc1ccc(C(C)(C)C(=O)NCc2cc(Cl)c(C3CCC(=O)NC3=O)c(Cl)c2)nn1 (stereo not drawn) [Compound 204] | 1
Cc1ccc(C(C)(C)C(=O)NCc2cc(Cl)c(C3CCC(=O)NC3=O)c(Cl)c2)cn1 (stereo not drawn) [Compound 205] | 1
CC(C)(C(=O)NCc1cc(Cl)c(C2CCC(=O)NC2=O)c(Cl)c1)c1cnc(CO)cn1 (stereo not drawn) [Compound 206] | 18

same assay, conditions: NEK7 degradation, Cal51 NEK7 NanoBiT cells, 24 hours; read-out: NanoBiT DC50

SMILES | DC50 [nM]
Cc1coc(C(C)(C)C(=O)NCc2cc(Cl)c(C3CCC(=O)NC3=O)c(Cl)c2)n1 (stereo not drawn) [Compound 197] | ≤ 100
CC(C)(C(=O)NCc1cc(Cl)c(C2CCC(=O)NC2=O)c(Cl)c1)c1nocc1C1CC1 (stereo not drawn) [Compound 198] | ≤ 100
CC(C)(C(=O)NCc1cc(Cl)c(C2CCC(=O)NC2=O)c(Cl)c1)c1ncoc1C(F)(F)F (stereo not drawn) [Compound 199] | ≤ 100
CC(C)(C(=O)NCc1cc(Cl)c(C2CCC(=O)NC2=O)c(Cl)c1)c1nnc(C(F)F)o1 (stereo not drawn) [Compound 200] | ≤ 100
Cc1conc1C(C)(C)C(=O)NCc1cc(Cl)c(C2CCC(=O)NC2=O)c(Cl)c1 (stereo not drawn) [Compound 201] | ≤ 100
CC(C)(O)c1ccc(C(C)(C)C(=O)NCc2cc(Cl)c(C3CCC(=O)NC3=O)c(Cl)c2)nn1 (stereo not drawn) [Compound 203] | ≤ 100
COc1ccc(C(C)(C)C(=O)NCc2cc(Cl)c(C3CCC(=O)NC3=O)c(Cl)c2)nn1 (stereo not drawn) [Compound 204] | ≤ 100
Cc1ccc(C(C)(C)C(=O)NCc2cc(Cl)c(C3CCC(=O)NC3=O)c(Cl)c2)cn1 (stereo not drawn) [Compound 205] | ≤ 100
CC(C)(C(=O)NCc1cc(Cl)c(C2CCC(=O)NC2=O)c(Cl)c1)c1cnc(CO)cn1 (stereo not drawn) [Compound 206] | ≤ 100
